# Measurements published in patent publication US10131652B2, “Pyrimidinyloxy benzene derivatives as herbicides” (E. I. DU PONT DE NEMOURS AND COMPANY, priority 2014, dated 2018).
# How the values were obtained:
# Assay type in all cases: in vivo
# [1] = tested on: Italian ryegrass (Lolium multiflorum); assay: Test B pre-/postemergence plant response
# Summary of the method: (§1)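 Greenhouse pots, loam/sand soil; compound formulated with surfactant in non-phytotoxic solvent. Preemergence soil spray and postemergence spray at 1–2 leaf stage run simultaneously. Visual injury, 0–100, about 10 days post-treatment.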
# [2] = tested on: barnyardgrass (Echinochloa crus-galli); assay: Test B pre-/postemergence plant response
# Summary of the method: as §1
# [3] = tested on: corn (Zea mays); assay: Test B pre-/postemergence plant response
# Summary of the method: as §1
# [4] = tested on: giant foxtail (Setaria faberii); assay: Test B pre-/postemergence plant response
# Summary of the method: as §1
# [5] = tested on: kochia (Kochia scoparia); assay: Test B pre-/postemergence plant response
# Summary of the method: as §1
# [6] = tested on: pigweed (Amaranthus retroflexus); assay: Test B pre-/postemergence plant response
# Summary of the method: as §1
# [7] = tested on: ragweed (common ragweed, Ambrosia elatior); assay: Test B pre-/postemergence plant response
# Summary of the method: as §1
# [8] = tested on: wheat (Triticum aestivum); assay: Test B pre-/postemergence plant response
# Summary of the method: as §1
# [9] = tested on: blackgrass (Alopecurus myosuroides); assay: Test B postemergence plant response
# Summary of the method: (§2)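 Injury was assessed visually about 10 days after treatment, scored from 0 (no effect) to 100 (complete control) by comparison with untreated controls. Test chemicals had been applied postemergence to potted plants at the one- to two-leaf stage, grown in loam soil and sand in a greenhouse.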
# [10] = tested on: galium (catchweed bedstraw, Galium aparine); assay: Test B postemergence plant response
# Summary of the method: as §2
# [11] = tested on: barnyardgrass (Echinochloa crus-galli); assay: Test C flooded paddy test plant response; settings: Flood, 250 g ai/ha; scale of 0 to 100 where 0 is no effect and 100 is complete control; 13 to 15 days
# Summary of the method: (§3)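 Scale 0 (no effect) to 100 (complete control), assigned visually versus controls after 13–15 d greenhouse. Application: directly to paddy water, 3 cm flood depth kept constant, 2-leaf stage.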
# [12] = tested on: ducksalad (Heteranthera limosa); assay: Test C flooded paddy test plant response; settings: Flood, 250 g ai/ha; scale of 0 to 100 where 0 is no effect and 100 is complete control; 13 to 15 days
# Summary of the method: as §3
# [13] = tested on: rice (Oryza sativa); assay: Test C flooded paddy test plant response; settings: Flood, 250 g ai/ha; scale of 0 to 100 where 0 is no effect and 100 is complete control; 13 to 15 days
# Summary of the method: as §3
# [14] = tested on: small-flower umbrella sedge (Cyperus difformis); assay: Test C flooded paddy test plant response; settings: Flood, 250 g ai/ha; scale of 0 to 100 where 0 is no effect and 100 is complete control; 13 to 15 days
# Summary of the method: as §3
# [15] = 31 g ai/ha, Preemergence, 0 to 100 scale where 0 is no effect and 100 is complete control
# [16] = 125 g ai/ha, postemergence, 0 to 100 scale, 0 no effect, 100 complete control
# [17] = Postemergence, 31 g ai/ha, 0 to 100 scale (0 no effect, 100 complete control)
# [18] = Preemergence, 125 g ai/ha, 0 to 100 scale (0 no effect, 100 complete control)
# [19] = Postemergence, 500 g ai/ha, 0 to 100 scale (0 no effect, 100 complete control)
# [20] = Preemergence, 500 g ai/ha, 0 to 100 scale where 0 is no effect and 100 is complete control
Structure (SMILES),"Plant response rating, Ryegrass, Italian [1, 16]","Ryegrass, Italian plant response rating [1, 18]","Plant response rating, Barnyardgrass [2, 16]","Barnyardgrass plant response rating [2, 18]","Plant response rating, Corn [3, 16]","Plant response rating, Foxtail, Giant [4, 16]","Foxtail, Giant plant response rating [4, 18]","Plant response rating, Kochia [5, 16]","Kochia plant response rating [5, 18]","Plant response rating, Pigweed [6, 16]","Pigweed plant response rating [6, 18]","Plant response rating, Ragweed [7, 16]","Ragweed plant response rating [7, 18]","Plant response rating, Wheat [8, 16]","Plant response rating, Blackgrass [9, 16]","Plant response rating, Galium [10, 16]",Barnyardgrass plant response rating [11],Ducksalad plant response rating [12],Rice plant response rating [13],"Sedge, Umbrella plant response rating [14]",other results
Clc1cnc(Oc2ccccc2-c2cc(Cl)cnn2)nc1 [Compound 189],0,0,0,0,0,0,0,0,0,0,0,0,0,0,0,0,0,0,0,0,"Plant response rating, Ryegrass, Italian [1, 15]: 0; Plant response rating, Ryegrass, Italian [1, 17]: 0; Plant response rating, Barnyardgrass [2, 15]: 0; Plant response rating, Barnyardgrass [2, 17]: 0; Plant response rating, Corn [3, 17]: 0; Plant response rating, Foxtail, Giant [4, 15]: 0; Plant response rating, Foxtail, Giant [4, 17]: 0; Plant response rating, Kochia [5, 15]: 0; Plant response rating, Kochia [5, 17]: 0; Plant response rating, Pigweed [6, 15]: 0; Plant response rating, Pigweed [6, 17]: 0; Plant response rating, Ragweed [7, 15]: 0; Plant response rating, Ragweed [7, 17]: 0; Plant response rating, Wheat [8, 17]: 0; Plant response rating, Blackgrass [9, 17]: 0; Plant response rating, Galium [10, 17]: 0"
Clc1cnc(Oc2ccccc2-c2cc(Cl)ncn2)nc1 [Compound 190],0,0,0,0,0,0,0,0,0,0,0,10,0,0,0,0,0,0,0,0,"Plant response rating, Ryegrass, Italian [1, 19]: 0; Plant response rating, Ryegrass, Italian [1, 20]: 0; Plant response rating, Barnyardgrass [2, 19]: 0; Plant response rating, Barnyardgrass [2, 20]: 0; Plant response rating, Corn [3, 19]: 0; Plant response rating, Foxtail, Giant [4, 19]: 0; Plant response rating, Foxtail, Giant [4, 20]: 10; Plant response rating, Kochia [5, 19]: 0; Plant response rating, Kochia [5, 20]: 0; Plant response rating, Pigweed [6, 19]: 20; Plant response rating, Pigweed [6, 20]: 10; Plant response rating, Ragweed [7, 19]: 10; Plant response rating, Ragweed [7, 20]: 0; Plant response rating, Wheat [8, 19]: 0; Plant response rating, Blackgrass [9, 19]: 0; Plant response rating, Galium [10, 19]: 10"
